This note sets out measurements from patent publication US12139520B2 (priority 2020, dated 2024).

For data set [1], the target named is T1, hAMY3 receptor (Homo sapiens, UniProt O60896+P30988).
T1 sequence (P30988 25-474): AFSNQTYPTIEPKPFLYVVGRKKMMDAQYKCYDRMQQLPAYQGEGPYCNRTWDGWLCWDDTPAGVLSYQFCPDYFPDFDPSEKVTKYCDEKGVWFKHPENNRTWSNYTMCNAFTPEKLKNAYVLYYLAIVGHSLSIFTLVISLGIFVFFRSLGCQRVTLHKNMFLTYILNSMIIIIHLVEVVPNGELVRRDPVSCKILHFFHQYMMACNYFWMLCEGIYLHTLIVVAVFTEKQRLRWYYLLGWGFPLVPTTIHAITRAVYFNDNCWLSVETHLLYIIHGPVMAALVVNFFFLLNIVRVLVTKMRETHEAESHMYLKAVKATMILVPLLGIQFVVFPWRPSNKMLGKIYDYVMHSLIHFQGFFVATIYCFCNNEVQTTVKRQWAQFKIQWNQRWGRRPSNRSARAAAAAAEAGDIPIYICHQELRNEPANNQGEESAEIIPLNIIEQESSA
T1 sequence (O60896 24-148 partner): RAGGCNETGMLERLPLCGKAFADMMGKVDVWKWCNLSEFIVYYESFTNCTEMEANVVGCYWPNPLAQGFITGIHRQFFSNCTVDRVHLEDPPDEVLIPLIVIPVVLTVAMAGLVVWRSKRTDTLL
Nature of the data set: cAMP assay for in vitro receptor activation, hAMY3-R. The format is cell-based. The conditions noted are these: cAMP assay, hAMY3 receptor; read-out: hAMY3R EC50. The gist of the method:
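Graded compound concentrations were applied for 30 min at room temperature to stably hAMY3-expressing cells in DPBS, 0.05% casein, 0.5 mM IBMX; cAMP detected by TR-FRET.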
On the technique in general: Cyclic AMP is a second messenger, typically raised through Gs and lowered through Gi signalling.

A short description of data set [2]: Physical stability of peptide analogues (Thioflavin T fibrillation). It counts as physicochemical. The settings on record: maximum ThT signal normalized between hAMY maximum and buffer background; 40° C., shaking, four days; pH 7 per table title. The gist of the method: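 Samples are stressed at 40 °C for four days, being shaken at 700 rpm before each 10-min fluorescence reading of 4 μM Thioflavin T. Buffers were pH 4 acetate or pH 7 phosphate. Reported values are smoothed maximum ThT signals as a percentage of the hAMY-to-background range.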

pEC50: −log10 of the molar value. Bridge positions count the residues as written; N and C are the ends. Square brackets hold non-standard residues; d marks the D form. Peptide text beside a SMILES is read from it. Hyp = O=C(O)[C@@H]1C[C@@H](O)CN1; Cit = NC(=O)NCCC[C@H](N)C(=O)O

For orientation: pEC50 means the EC50 on a negative log10 scale, so that one unit is a factor of ten. As for `CC[C@H](C)[C@H](NC(=O)[C@H](CCC(N)=O)NC(=O)[C@H](Cc1c[nH]cn1)NC(=O)[C@H](C)NC(=O)[C@H](CC(C)C)NC(=O)[C@H](CCCNC(N)=O)NC(=O)[C@H](CCC(N)=O)NC(=O)[C@@H](NC(=O)[C@@H](NC(=O)[C@@H]1CSSC[C@H](NC(=O)CN)C(=O)N[C@@H](CCCNC(=N)N)C(=O)N[C@@H](Cc2ccccc2)C(=O)NCC(=O)N[C@@H]([C@@H](C)O)C(=O)N1)[C@@H](C)O)C(C)C)C(=O)N[C@@H](Cc1ccc(O)cc1)C(=O)N[C@@H](CCC(N)=O)C(=O)N[C@@H](Cc1ccccc1)C(=O)N[C@H](C(=O)N[C@@H](CC(=O)O)C(=O)N[C@@H](CCCCN)C(=O)N[C@@H](CC(=O)O)C(=O)N[C@@H](CCCCN)C(=O)N[C@@H](CC(=O)O)C(=O)N[C@@H](CC(N)=O)C(=O)N[C@H](C(=O)N[C@@H](C)C(=O)N1CCC[C@H]1C(=O)N[C@@H](CCCNC(=N)N)C(=O)N[C@H](C(=O)N[C@@H](CC(N)=O)C(=O)N[C@H](C(=O)N[C@@H](CO)C(=O)N1CCC[C@H]1C(=O)N[C@@H](CCC(N)=O)C(=O)NCC(=O)N[C@@H](Cc1ccc(O)cc1)C(N)=O)C(C)C)[C@@H](C)O)C(C)C)[C@@H](C)O` [compound 278] (H-GCRFGTCTVQ[Cit]LAHQIYQFTDKDKDNVAPRTNVSPQGY-NH2; disulfide 2-7; N-terminus assumed), in data set [1], the pEC50 is 10.96. The “Max ThT signal (%)” value in data set [2] is on record as 13.350%.
For `CC(C)C[C@H](NC(=O)[C@H](CCCNC(N)=O)NC(=O)[C@H](CCC(N)=O)NC(=O)[C@@H](NC(=O)[C@@H](NC(=O)[C@@H]1CSSC[C@H](NC(=O)CN)C(=O)N[C@@H](CCCNC(=N)N)C(=O)N[C@@H](Cc2ccccc2)C(=O)NCC(=O)N[C@@H]([C@@H](C)O)C(=O)N1)[C@@H](C)O)C(C)C)C(=O)N[C@@H](C)C(=O)N[C@@H](Cc1c[nH]cn1)C(=O)N[C@@H](Cc1ccccc1)C(=O)N[C@@H](CC(C)C)C(=O)N[C@@H](Cc1ccc(O)cc1)C(=O)N[C@@H](CCC(N)=O)C(=O)N[C@@H](Cc1ccccc1)C(=O)N[C@H](C(=O)N[C@@H](CC(=O)O)C(=O)N[C@@H](CCCCN)C(=O)N[C@@H](CC(=O)O)C(=O)N[C@@H](CCCCN)C(=O)N[C@@H](CC(=O)O)C(=O)N[C@@H](CC(N)=O)C(=O)N[C@H](C(=O)N[C@@H](C)C(=O)N1CCC[C@H]1C(=O)N[C@@H](CCCNC(=N)N)C(=O)N[C@H](C(=O)N[C@@H](CCCCN)C(=O)N[C@H](C(=O)NCC(=O)N[C@@H](CO)C(=O)N[C@@H](CC(N)=O)C(=O)NCC(=O)N[C@@H](Cc1ccc(O)cc1)C(N)=O)C(C)C)[C@@H](C)O)C(C)C)[C@@H](C)O` [compound 279] (H-GCRFGTCTVQ[Cit]LAHFLYQFTDKDKDNVAPRTKVGSNGY-NH2; disulfide 2-7; N-terminus assumed), in that order: 10.89 and 13.450%.
Consider `CC[C@H](C)[C@H](NC(=O)[C@H](CCCCN)NC(=O)[C@H](CO)NC(=O)[C@H](CCCNC(=N)N)NC(=O)[C@@H]1CCCN1C(=O)[C@H](C)NC(=O)[C@@H](NC(=O)[C@H](CC(N)=O)NC(=O)[C@H](CC(=O)O)NC(=O)[C@H](CCCCN)NC(=O)[C@H](CC(=O)O)NC(=O)[C@H](CCCCN)NC(=O)[C@H](CC(=O)O)NC(=O)[C@@H](NC(=O)[C@H](Cc1ccccc1)NC(=O)[C@H](CCC(N)=O)NC(=O)[C@H](Cc1ccc(O)cc1)NC(=O)[C@@H](NC(=O)[C@H](CCC(N)=O)NC(=O)[C@H](Cc1c[nH]cn1)NC(=O)[C@H](C)NC(=O)[C@H](CC(C)C)NC(=O)[C@H](CCCNC(N)=O)NC(=O)[C@H](CCC(N)=O)NC(=O)[C@@H](NC(=O)[C@@H](NC(=O)[C@@H]1CSSC[C@H](NC(=O)CN)C(=O)N[C@@H](CCCNC(=N)N)C(=O)N[C@@H](Cc2ccccc2)C(=O)NCC(=O)N[C@@H]([C@@H](C)O)C(=O)N1)[C@@H](C)O)C(C)C)[C@@H](C)CC)[C@@H](C)O)C(C)C)C(=O)NCC(=O)N1CCC[C@H]1C(=O)N[C@@H](CCC(N)=O)C(=O)NCC(=O)N1C[C@H](O)C[C@H]1C(N)=O` [compound 284] (H-GCRFGTCTVQ[Cit]LAHQIYQFTDKDKDNVAPRSKIGPQG[Hyp]-NH2; disulfide 2-7), for which the negative logarithm of the EC50 (pEC50) in data set [1] was 10.55. Moreover, the “Max ThT signal (%)” value in data set [2] worked out at 21.300%.
For `CC[C@H](C)[C@H](NC(=O)[C@H](CCC(N)=O)NC(=O)[C@H](Cc1c[nH]cn1)NC(=O)[C@H](C)NC(=O)[C@H](CC(C)C)NC(=O)[C@H](CCCNC(N)=O)NC(=O)[C@H](CCC(N)=O)NC(=O)[C@@H](NC(=O)[C@@H](NC(=O)[C@@H]1CSSC[C@H](NC(=O)CN)C(=O)N[C@@H](CCCNC(=N)N)C(=O)N[C@@H](Cc2ccccc2)C(=O)NCC(=O)N[C@@H]([C@@H](C)O)C(=O)N1)[C@@H](C)O)C(C)C)C(=O)N[C@@H](Cc1ccc(O)cc1)C(=O)N[C@@H](CCC(N)=O)C(=O)N[C@@H](Cc1ccccc1)C(=O)N[C@H](C(=O)N[C@@H](CC(=O)O)C(=O)N[C@@H](CCCCN)C(=O)N[C@@H](CC(=O)O)C(=O)N[C@@H](CCCCN)C(=O)N[C@@H](CC(=O)O)C(=O)N[C@@H](CC(N)=O)C(=O)N[C@H](C(=O)N[C@@H](C)C(=O)N1CCC[C@H]1C(=O)N[C@@H](CCCNC(=N)N)C(=O)N[C@@H](CO)C(=O)N[C@@H](CC(N)=O)C(=O)N[C@H](C(=O)N[C@@H](CO)C(=O)N1CCC[C@H]1C(=O)N[C@@H](CCC(N)=O)C(=O)NCC(=O)N[C@@H](Cc1ccc(O)cc1)C(N)=O)C(C)C)C(C)C)[C@@H](C)O` [compound 286] (H-GCRFGTCTVQ[Cit]LAHQIYQFTDKDKDNVAPRSNVSPQGY-NH2; disulfide 2-7; N-terminus assumed), in that order: 10.60 and 2.900%.
For `CC[C@H](C)[C@H](NC(=O)[C@H](CCC(N)=O)NC(=O)[C@H](Cc1c[nH]cn1)NC(=O)[C@H](C)NC(=O)[C@H](CC(C)C)NC(=O)[C@H](CCCNC(N)=O)NC(=O)[C@H](CCC(N)=O)NC(=O)[C@@H](NC(=O)[C@@H](NC(=O)[C@@H]1CSSC[C@H](NC(=O)CN)C(=O)N[C@@H](CCCNC(=N)N)C(=O)N[C@@H](Cc2ccccc2)C(=O)NCC(=O)N[C@@H]([C@@H](C)O)C(=O)N1)[C@@H](C)O)C(C)C)C(=O)N[C@@H](Cc1ccc(O)cc1)C(=O)N[C@@H](CCC(N)=O)C(=O)N[C@@H](Cc1ccccc1)C(=O)N[C@H](C(=O)N[C@@H](CC(=O)O)C(=O)N[C@@H](CCCCN)C(=O)N[C@@H](CC(=O)O)C(=O)N[C@@H](CCCCN)C(=O)N[C@@H](CC(=O)O)C(=O)N[C@@H](CC(N)=O)C(=O)N[C@H](C(=O)N[C@@H](C)C(=O)N1CCC[C@H]1C(=O)N[C@@H](CCCNC(=N)N)C(=O)N[C@@H](CO)C(=O)N[C@@H](CC(N)=O)C(=O)N[C@H](C(=O)NCC(=O)N1CCC[C@H]1C(=O)N[C@@H](CCC(N)=O)C(=O)NCC(=O)N1C[C@H](O)C[C@H]1C(N)=O)C(C)C)C(C)C)[C@@H](C)O` [compound 289] (H-GCRFGTCTVQ[Cit]LAHQIYQFTDKDKDNVAPRSNVGPQG[Hyp]-NH2; disulfide 2-7; N-terminus assumed), in that order: 11.30 and 21.150%.
For the molecule `CC[C@H](C)[C@H](NC(=O)[C@H](CCC(N)=O)NC(=O)[C@H](Cc1c[nH]cn1)NC(=O)[C@H](C)NC(=O)[C@H](CC(C)C)NC(=O)[C@H](CCCNC(N)=O)NC(=O)[C@H](CCC(N)=O)NC(=O)[C@@H](NC(=O)[C@@H](NC(=O)[C@@H]1CSSC[C@H](NC(=O)CN)C(=O)N[C@@H](CCCNC(=N)N)C(=O)N[C@@H]([C@@H](C)O)C(=O)NCC(=O)N[C@@H]([C@@H](C)O)C(=O)N1)[C@@H](C)O)C(C)C)C(=O)N[C@@H](Cc1ccc(O)cc1)C(=O)N[C@@H](CCC(N)=O)C(=O)N[C@@H](Cc1ccccc1)C(=O)N[C@H](C(=O)N[C@@H](CC(=O)O)C(=O)N[C@@H](CCCCN)C(=O)N[C@@H](CC(=O)O)C(=O)N[C@@H](CCCCN)C(=O)N[C@@H](CC(=O)O)C(=O)N[C@@H](CC(N)=O)C(=O)N[C@H](C(=O)N[C@@H](C)C(=O)N1CCC[C@H]1C(=O)N[C@@H](CCCNC(=N)N)C(=O)N[C@H](C(=O)N[C@@H](CC(N)=O)C(=O)N[C@H](C(=O)N[C@@H](CO)C(=O)N1CCC[C@H]1C(=O)N[C@@H](CC(N)=O)C(=O)NCC(=O)N1C[C@H](O)C[C@H]1C(N)=O)C(C)C)[C@@H](C)O)C(C)C)[C@@H](C)O` [compound 302] (H-GCRTGTCTVQ[Cit]LAHQIYQFTDKDKDNVAPRTNVSPNG[Hyp]-NH2; disulfide 2-7; N-terminus assumed), the pEC50 in data set [1] is 10.15. Besides, the “Max ThT signal (%)” value in data set [2] came out at 24.250%.
